The text below walks through data of patent US20030232986A1, “Inhibitors of caspases” (Vertex Pharmaceuticals Incorporated, priority 1998, published 2003).

Molecules are shown by their SMILES. Where a SMILES comes first, the peptide text is derived from it. [ ]: non-standard residue; d: D form. The star is where a group is joined. Isovaleryl = CC(C)CC(=O)*; 4Abz = Nc1ccc(C(=O)O)cc1; Aze = O=C(O)[C@@H]1CCN1; Bz = O=C(c1ccccc1)* Where only a bound is given, the exact number is not on record here.

The subject of series [1] is Human whole blood, IL-1β production. Put plainly: Whole blood assay for IL-1β production. In kind it is cell-based. The conditions noted are these: LPS-stimulated whole blood, IL-1β by ELISA. In short, it runs like this:
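LPS-stimulated (5.0 ng/ml final) human whole blood incubated with test compound in saline (or plasma/PBS-5% DMSO for hydrophobic compounds) at 30° C for 16-18 hr. Plasma IL-1β then measured by ELISA at 1:200 dilution, against no-LPS, no-inhibitor and vehicle controls.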

The target of series [2] is T1, Caspase-1 (Homo sapiens, UniProt P29466).
T1 sequence (P29466 120-297 limits assumed): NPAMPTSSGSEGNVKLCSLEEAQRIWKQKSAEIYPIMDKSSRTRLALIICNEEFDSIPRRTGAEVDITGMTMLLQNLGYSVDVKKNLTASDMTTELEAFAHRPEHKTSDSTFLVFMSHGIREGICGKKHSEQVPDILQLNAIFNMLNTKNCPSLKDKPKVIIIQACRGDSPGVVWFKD
T1 sequence (P29466 317-404 limits assumed): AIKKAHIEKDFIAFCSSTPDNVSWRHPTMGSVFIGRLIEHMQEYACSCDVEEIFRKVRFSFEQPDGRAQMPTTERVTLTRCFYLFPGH
Put plainly: Caspase-1 enzyme inhibition (Ki). In kind it is biochemical. To be noted: substrate Suc-YVAD-pNA 80 μM, 37° C., pH 7.5. In short, it runs like this: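 Ki obtained by fitting rate versus inhibitor concentration to the Morrison tight-binding equation for competitive inhibitors, with pNA release read at 405 nm at 37 °C. Substrate Suc-YVAD-pNA (80 μM final) added after 15 min enzyme–inhibitor preincubation in Tris pH 7.5 buffer with DTT and CHAPS.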

Series [3] in a line: Single pass perfusion in rat: GI wall and liver metabolism, biliary excretion. In kind it is in vitro ADME. The conditions noted are these: for f (g) Xf (h): GI wall metabolism f(g) x liver metabolism f(h). On the procedure:
Single pass perfusion studies in rat were performed to assess gastrointestinal (GI) wall metabolism (f(g)), liver metabolism (f(h)), and biliary excretion. The method used has been described in Pang, C. S., J. Pharmacol. Exp. Therapeutics, 333, pp. 788-798 (1984).

For series [4], the system named is Human Peripheral Blood Mononuclear Cells (PBMC), mature IL-1β. Put plainly: PBMC cell assay: IL-1β assay with human peripheral blood mononuclear cells. In kind it is cell-based. To be noted: LPS-stimulated human PBMC, mature IL-1β in supernatant by ELISA. Put shortly: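 Donor PBMC (suspension at 6×10^6 cells/ml) or adherent-enriched monocytes were stimulated with 5 ng/ml LPS (final) alongside 5–6 compound dilutions bracketing the ICE Ki, at 0.1% DMSO final, for 16–18 hr at 37° C, 5% CO2. Mature IL-1β in supernatants was measured by ELISA; IC50 was calculated relative to LPS-only controls.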
Background: ELISA stands for enzyme-linked immunosorbent assay.

Consider `COc1cc(NC(C)=O)c(Cl)cc1C(=O)N[C@@H](C)C(=O)N1CCC[C@H]1C(=O)N[C@H](C=O)CC(=O)O` [Example 122r, 3-({1-[2-(4-Acetylamino-5-chloro-2-methoxy-benzoylamino)-propionyl]-pyrrolidine-2-carbonyl}-amino)-4-oxo-butyric acid], for which the IC50 (usually the point on the concentration scale where inhibition reaches its midpoint) in series [1] lay within 2.5 to 7.5 µM. The Ki (in general, the equilibrium dissociation constant of an inhibitor or competing ligand from its target) in series [2] fell in the range of 0.01 to 1 µM. Besides, in series [3], the “Biliary Excretion” value is given as “A (category “A” indicates <5%)” and the “f (g) Xf (h)” value is listed as “B (Category “B” indicates 0.25-0.49)”.

On to `COc1c(C)cc(C(=O)N[C@H](C(=O)N[C@@H](C)C(=O)N[C@H](C=O)CC(=O)O)C(C)C)cc1C` [Example 29p], for which, in series [1], the IC50 is < 2.5 µM. Moreover, in series [2], the Ki was < 0.01 µM. In series [3], the “Biliary Excretion” value was “C (Category “C” indicates >10%)” and the “f (g) Xf (h)” value was “B (Category “B” indicates 0.25-0.49)”.

`CC(C)[C@H](NC(=O)c1ccc(N)c(Cl)c1)C(=O)N[C@@H](C)C(=O)N[C@H](C=O)CC(=O)O` [Example 29r]: in series [1], the IC50 is < 2.5 µM. Moreover, the inhibition constant (Ki) in series [2] is < 0.01 µM. Further, in series [3], the “Biliary Excretion” value is “B (Category “B” indicates 5-10%)” and the “f (g) Xf (h)” value is on record as “C (Category “C” indicates 0.5-0.75)”.

With `COc1cc(N)c(Cl)cc1C(=O)N[C@@H](C)C(=O)N1CCC[C@H]1C(=O)N[C@H](C=O)CC(=O)O` [Example 7ac], the IC50 in series [1] was in the range of 2.5 to 7.5 µM. Further, the Ki in series [2] is 0.01 to 1 µM. In series [3], the “Biliary Excretion” value is reported as “C (Category “C” indicates >10%)” and the “f (g) Xf (h)” value was “C (Category “C” indicates 0.5-0.75)”.

`COc1c(C)cc(C(=O)N[C@@H](C)C(=O)N[C@@H](C)C(=O)N[C@H](C=O)CC(=O)O)cc1C` [Example 29o]: in series [1], the IC50 was < 2.5 µM. The same molecule displayed an inhibition constant Ki in series [2] of 0.01 to 1 µM. Besides, in series [3], the “Biliary Excretion” value is “A (category “A” indicates <5%)” and the “f (g) Xf (h)” value is given as “C (Category “C” indicates 0.5-0.75)”.

With `COc1ccc(C(=O)N[C@H](C(=O)N[C@@H](C)C(=O)N[C@H](C=O)CC(=O)O)C(C)C)cc1` [Example 29n], the IC50 in series [1] is 2.5 to 7.5 µM. Moreover, the inhibitory constant (Ki) in series [2] lay within 0.01 to 1 µM. Also, in series [3], the “Biliary Excretion” value was “A (category “A” indicates <5%)” and the “f (g) Xf (h)” value was “C (Category “C” indicates 0.5-0.75)”.

As for `CC(=O)Nc1ccc(C(=O)N[C@@H](C)C(=O)N2CCCC[C@H]2C(=O)N[C@H](C=O)CC(=O)O)cc1Cl` [Example 25e], in series [1], the IC50 is > 7.5 µM. Moreover, the inhibition constant Ki in series [2] is < 0.01 µM. In series [3], the “Biliary Excretion” value is “B (Category “B” indicates 5-10%)” and the “f (g) Xf (h)” value was “C (Category “C” indicates 0.5-0.75)”.

Consider `COc1cc(N)c(Cl)cc1C(=O)N[C@@H](C)C(=O)N1CC(F)(F)C[C@H]1C(=O)N[C@H](C=O)CC(=O)O` [Example 27b], for which the IC50 in series [1] was < 2.5 µM. Further, the Ki in series [2] lay within 0.01 to 1 µM. Besides, in series [3], the “Biliary Excretion” value was “A (category “A” indicates <5%)” and the “f (g) Xf (h)” value was “B (Category “B” indicates 0.25-0.49)”.

As for `C[C@H](NC(=O)c1ccc(N)c(Cl)c1)C(=O)N1CCCC[C@H]1C(=O)N[C@H](C=O)CC(=O)O` [Example 25d], in series [1], the half-inhibitory concentration (IC50) is < 2.5 µM. Besides, the Ki in series [2] is < 0.01 µM. In addition, in series [3], the “Biliary Excretion” value was “C (Category “C” indicates >10%)” and the “f (g) Xf (h)” value was “C (Category “C” indicates 0.5-0.75)”.

Consider `CC(NC(=O)c1ccc(N)c(Cl)c1)C(=O)N1N=CC(C)C1C(=O)NC(C=O)CC(=O)O` (stereo not shown) [Example 23g, 3-({2-[2-(4-Amino-3-chloro-benzoylamino)-propionyl]-4-methyl-3,4-dihydro-2H-pyrazole-3-carbonyl}-amino)-4-oxo-butyric acid], for which the values for the IC50 in series [4] and in series [1] were 1 to 2 µM and < 2.5 µM, respectively. Moreover, the Ki in series [2] is < 0.01 µM.

For the molecule `CC[C@H](NC(=O)c1nccc2ccccc12)C(=O)N1CCC[C@H]1C(=O)N[C@H](C=O)CC(=O)O` [Example 20e], the IC50 in series [4] lay within 1 to 2 µM; in series [1], 2.5 to 7.5 µM. In series [2], the Ki is < 0.01 µM.

For the molecule `COc1cc(C(=O)N[C@@H](C)C(=O)N2CCC[C@H]2C(=O)N[C@H](C=O)CC(=O)O)cc(Cl)c1O` [Example 7o], the IC50 in series [4] is < 0.5 µM; in series [1] it was < 2.5 µM. Also, the Ki in series [2] is < 0.01 µM.

Consider `CC(=O)N[C@@H]1C[C@@H](C(=O)N[C@H](C=O)CC(=O)O)N(C(=O)[C@@H](NC(=O)c2nccc3ccccc23)C(C)C)C1` [Example 9g], for which the half-maximal inhibitory concentration (IC50) in series [4] lay in the range of 1 to 2 µM; in series [1] it was 2.5 to 7.5 µM. In series [2], the inhibitory constant (Ki) was < 0.01 µM.

As to `CC(C)[C@H](NC(=O)c1cccc2ccccc12)C(=O)N1CCC[C@H]1C(=O)N[C@H](C=O)CC(=O)O` [Example 5d], the results for the IC50 in series [4] and in series [1] were 0.5 to 1 µM and 2.5 to 7.5 µM, respectively. Further, the Ki in series [2] is < 0.01 µM.

For the molecule `CC(=O)Nc1c(Cl)cc(C(=O)N[C@@H](C)C(=O)N2CCC[C@H]2C(=O)N[C@H](C=O)CC(=O)O)cc1Cl` [Example 7z], the IC50 was 1 to 2 µM in series [4] and < 2.5 µM in series [1]. The same molecule showed an inhibition constant Ki in series [2] of 0.01 to 1 µM.

With `CC(C)CC(=O)Nc1ccc(C(=O)N[C@@H](C)C(=O)N2CCC[C@H]2C(=O)N[C@H](C=O)CC(=O)O)cc1` [Example 7v] ({Isovaleryl-4Abz}-Ala-Pro-Asp-aldehyde), the figures for the IC50 in series [4] and in series [1] were > 2 µM and < 2.5 µM, respectively. In addition, in series [2], the Ki lay within 0.01 to 1 µM.

On to `C[C@H](NC(=O)c1ccc(N)c(Cl)c1)C(=O)N[C@@H](C)C(=O)N[C@H](C=O)CC(=O)O` [Example 29q], for which the IC50 in series [1] was < 2.5 µM. Besides, in series [2], the inhibition constant (Ki) is < 0.01 µM. In series [3], the “Biliary Excretion” value is given as “A (category “A” indicates <5%)” and the “f (g) Xf (h)” value was “C (Category “C” indicates 0.5-0.75)”.

On to `CC(C)[C@H](NC(=O)c1nccc2ccccc12)C(=O)N1CCNCC1C(=O)N[C@H](C=O)CC(=O)O` (stereo partly shown) [Example 15b], for which the IC50 in series [4] was in the range of 1 to 2 µM; in series [1], 2.5 to 7.5 µM. In series [2], the inhibitory constant (Ki) is < 0.01 µM.

In the case of `COC(=O)N[C@@H]1C[C@@H](C(=O)N[C@H](C=O)CC(=O)O)N(C(=O)[C@@H](NC(=O)c2ccc(OC)cc2)C(C)C)C1` [Example 9e], the values for the IC50 in series [4] and in series [1] were 1 to 2 µM and 2.5 to 7.5 µM, respectively. In addition, the Ki in series [2] was < 0.01 µM.

As to `CC(C)[C@H](NC(=O)c1cccc(Oc2ccccc2)c1)C(=O)N1CCC[C@H]1C(=O)N[C@H](C=O)CC(=O)O` [Example 5ay], the half-maximal inhibitory concentration (IC50) in series [4] is 0.5 to 1 µM; in series [1], 2.5 to 7.5 µM. In addition, the inhibitory constant (Ki) in series [2] is < 0.01 µM.

As for `CC(C)S(=O)(=O)N1CCN(C(=O)[C@H](C)NC(=O)c2nccc3ccccc23)[C@H](C(=O)N[C@H](C=O)CC(=O)O)C1` [Example 18b], the IC50 in series [4] is 0.5 to 1 µM; in series [1], < 2.5 µM. Further, in series [2], the Ki was < 0.01 µM.

For `CC(C)[C@H](NC(=O)c1ccccc1)C(=O)N1CC[C@H]1C(=O)N[C@H](C=O)CC(=O)O` [Example 24d] (Bz-Val-[Aze]-Asp-aldehyde), the 50% inhibitory concentration (IC50) in series [4] was in the range of 0.5 to 1 µM; in series [1], 2.5 to 7.5 µM. The molecule also displayed a Ki in series [2] of 0.01 to 1 µM.

As for `Cc1cc(C(=O)N[C@@H](C)C(=O)N2CCC[C@H]2C(=O)N[C@H](C=O)CC(=O)O)cc(Cl)c1N` [Example 7w], the concentration for half-maximal inhibition (IC50) in series [4] is 1 to 2 µM; in series [1] it was < 2.5 µM. In series [2], the Ki was < 0.01 µM.
